Data from ChEMBL document CHEMBL1143427, “Interactions of ceftobiprole with beta-lactamases from molecular classes A to D” (Antimicrob Agents Chemother, 2007).
In brackets after ≈: the same amount, converted by molar mass.

Assays:
Type in all cases: functional
Providencia stuartii = assay: Antibacterial activity against Providencia stuartii 2772 producing beta lactamase AmpC by broth microdilution method
Pseudomonas aeruginosa [1] = assay: Antibacterial activity against Pseudomonas aeruginosa 4352 producing beta lactamase AmpC by broth microdilution method
Klebsiella pneumoniae [2] = assay: Antibacterial activity against Klebsiella pneumoniae 4238 producing beta lactamase SHV1 by broth microdilution method
Escherichia coli [3] = assay: Antibacterial activity against Escherichia coli producing beta lactamase TEM1 by broth microdilution method
Escherichia coli [4] = assay: Antibacterial activity against Escherichia coli 6226 producing beta lactamase KPC2 by broth microdilution method
Pseudomonas aeruginosa [5] = assay: Antibacterial activity against Pseudomonas aeruginosa 7052 producing beta lactamase VIM2 by broth microdilution method
Staphylococcus aureus [6] = assay: Antibacterial activity against Staphylococcus aureus 4116 producing betalactamase PC1 by broth microdilution method
Serratia marcescens [7] = assay: Antibacterial activity against Serratia marcescens 4104 producing beta lactamase AmpC by broth microdilution method
Morganella morganii = assay: Antibacterial activity against Morganella morganii 2574 producing beta lactamase AmpC by broth microdilution method
Pseudomonas aeruginosa [8] = assay: Antibacterial activity against Pseudomonas aeruginosa 18SH producing beta lactamase AmpC by broth microdilution method
Pseudomonas aeruginosa [9] = assay: Antibacterial activity against Pseudomonas aeruginosa HPA101-1477 producing beta lactamase IMP1 by broth microdilution method
Klebsiella pneumoniae [10] = assay: Antibacterial activity against Klebsiella pneumoniae 4094 producing beta lactamase TEM26 by broth microdilution method
Serratia marcescens [11] = assay: Antibacterial activity against Serratia marcescens 7554 producing beta lactamase SME3 by broth microdilution method
Klebsiella oxytoca = assay: Antibacterial activity against Klebsiella oxytoca 4076 producing beta lactamase K1 by broth microdilution method
Pseudomonas aeruginosa [12] = assay: Antibacterial activity against Pseudomonas aeruginosa MK-1184 producing beta lactamase AmpC by broth microdilution method
Escherichia coli [13] = assay: Antibacterial activity against Escherichia coli 11732 producing beta lactamase CTX-M-15 by broth microdilution method
Pseudomonas aeruginosa [14] = assay: Antibacterial activity against Pseudomonas aeruginosa 4083 producing beta lactamase OXA10 by broth microdilution method
Enterobacter cloacae [15] = assay: Antibacterial activity against Enterobacter cloacae 4080 producing beta lactamase AmpC (P99) by broth microdilution method
Enterobacter cloacae [16] = assay: Antibacterial activity against Enterobacter cloacae 908R producing beta lactamase AmpC by broth microdilution method
Enterobacter cloacae [17] = assay: Antibacterial activity against Enterobacter cloacae 4081 producing beta lactamase AmpC (E2) by broth microdilution method
Enterobacter cloacae [18] = assay: Antibacterial activity against Enterobacter cloacae 4092 producing beta lactamase AmpC (E2) by broth microdilution method
Staphylococcus aureus [19] = assay: Antibacterial activity against methicillin-susceptible Staphylococcus aureus
Staphylococcus aureus [20] = assay: Antibacterial activity against methicillin-resistant Staphylococcus aureus

Structure (SMILES): CO/N=C(\C(=O)N[C@@H]1C(=O)N2C(C(=O)[O-])=C(C[N+]3(C)CCCC3)CS[C@H]12)c1csc(N)n1
- MIC (Providencia stuartii): 0.25 µg/mL (≈ 0.52 µM)
- MIC (Pseudomonas aeruginosa [1]): 2 µg/mL (≈ 4.16 µM)
- MIC (Klebsiella pneumoniae [2]): 0.25 µg/mL (≈ 0.52 µM)
- MIC (Escherichia coli [3]): 0.12 µg/mL (≈ 0.25 µM)
- MIC (Escherichia coli [4]): 16 µg/mL (≈ 33.3 µM)
- MIC (Pseudomonas aeruginosa [5]): 128 µg/mL (≈ 266 µM)
- MIC (Staphylococcus aureus [6]): 2 µg/mL (≈ 4.16 µM)
- MIC (Serratia marcescens [7]): 0.12 µg/mL (≈ 0.25 µM)
- MIC (Morganella morganii): 0.03 µg/mL (≈ 0.0624 µM)
- MIC (Pseudomonas aeruginosa [8]): 32 µg/mL (≈ 66.6 µM)
- MIC (Pseudomonas aeruginosa [9]): > 32 µg/mL
- MIC (Klebsiella pneumoniae [10]): 4 µg/mL (≈ 8.32 µM)
- MIC (Serratia marcescens [11]): 0.25 µg/mL (≈ 0.52 µM)
- MIC (Klebsiella oxytoca): 2 µg/mL (≈ 4.16 µM)
- MIC (Pseudomonas aeruginosa [12]): 32 µg/mL (≈ 66.6 µM)
- MIC (Escherichia coli [13]): 16 µg/mL (≈ 33.3 µM)
- MIC (Pseudomonas aeruginosa [14]): 8 µg/mL (≈ 16.6 µM)

Structure (SMILES): CC(C)(O/N=C(\C(=O)N[C@@H]1C(=O)N2C(C(=O)[O-])=C(C[n+]3ccccc3)CS[C@H]12)c1csc(N)n1)C(=O)O [CEFTAZIDIME]
- MIC (Providencia stuartii): 4 µg/mL (≈ 7.32 µM)
- MIC (Enterobacter cloacae [15]): 64 µg/mL (≈ 117 µM)
- MIC (Pseudomonas aeruginosa [1]): 4 µg/mL (≈ 7.32 µM)
- MIC (Klebsiella pneumoniae [2]): 2 µg/mL (≈ 3.66 µM)
- MIC (Escherichia coli [3]): 0.5 µg/mL (≈ 0.915 µM)
- MIC (Escherichia coli [4]): 32 µg/mL (≈ 58.5 µM)
- MIC (Pseudomonas aeruginosa [5]): 64 µg/mL (≈ 117 µM)
- MIC (Enterobacter cloacae [16]): > 64 µg/mL
- MIC (Staphylococcus aureus [6]): 4 µg/mL (≈ 7.32 µM)
- MIC (Enterobacter cloacae [17]): > 128 µg/mL
- MIC (Serratia marcescens [7]): 0.25 µg/mL (≈ 0.457 µM)
- MIC (Morganella morganii): 1 µg/mL (≈ 1.83 µM)
- MIC (Pseudomonas aeruginosa [8]): 32 µg/mL (≈ 58.5 µM)
- MIC (Pseudomonas aeruginosa [9]): > 32 µg/mL
- MIC (Klebsiella pneumoniae [10]): > 256 µg/mL
- MIC (Serratia marcescens [11]): 0.5 µg/mL (≈ 0.915 µM)
- MIC (Klebsiella oxytoca): 0.5 µg/mL (≈ 0.915 µM)
- MIC (Enterobacter cloacae [18]): 1 µg/mL (≈ 1.83 µM)
- MIC (Pseudomonas aeruginosa [12]): 32 µg/mL (≈ 58.5 µM)
- MIC (Escherichia coli [13]): 32 µg/mL (≈ 58.5 µM)
- MIC (Pseudomonas aeruginosa [14]): 2 µg/mL (≈ 3.66 µM)

Structure (SMILES): Nc1nc(/C(=N/O)C(=O)N[C@@H]2C(=O)N3C(C(=O)O)=C(/C=C4\CCN([C@@H]5CCNC5)C4=O)CS[C@H]23)ns1 [CEFTOBIPROLE]
- MIC (Providencia stuartii): 0.015 µg/mL (≈ 0.0281 µM)
- MIC (Enterobacter cloacae [15]): 2 µg/mL (≈ 3.74 µM)
- MIC (Pseudomonas aeruginosa [1]): 4 µg/mL (≈ 7.48 µM)
- MIC (Klebsiella pneumoniae [2]): 0.5 µg/mL (≈ 0.935 µM)
- MIC90 (Staphylococcus aureus [19]): 0.5 µg/mL (≈ 0.935 µM)
- MIC90 (Staphylococcus aureus [20]): 2 µg/mL (≈ 3.74 µM)
- MIC (Escherichia coli [3]): 0.5 µg/mL (≈ 0.935 µM)
- MIC (Escherichia coli [4]): 16 µg/mL (≈ 29.9 µM)
- MIC (Pseudomonas aeruginosa [5]): > 128 µg/mL
- MIC (Enterobacter cloacae [16]): 4 µg/mL (≈ 7.48 µM)
- MIC (Staphylococcus aureus [6]): 0.25 µg/mL (≈ 0.468 µM)
- MIC (Enterobacter cloacae [17]): 1 µg/mL (≈ 1.87 µM)
- MIC (Serratia marcescens [7]): 0.12 µg/mL (≈ 0.224 µM)
- MIC (Morganella morganii): 0.03 µg/mL (≈ 0.0561 µM)
- MIC (Pseudomonas aeruginosa [8]): 16 µg/mL (≈ 29.9 µM)
- MIC (Pseudomonas aeruginosa [9]): > 32 µg/mL
- MIC (Klebsiella pneumoniae [10]): 0.25 µg/mL (≈ 0.468 µM)
- MIC (Serratia marcescens [11]): 0.25 µg/mL (≈ 0.468 µM)
- MIC (Klebsiella oxytoca): > 32 µg/mL
- MIC (Enterobacter cloacae [18]): 0.12 µg/mL (≈ 0.224 µM)
- MIC (Pseudomonas aeruginosa [12]): 32 µg/mL (≈ 59.9 µM)
- MIC (Escherichia coli [13]): > 128 µg/mL
- MIC (Pseudomonas aeruginosa [14]): 128 µg/mL (≈ 239 µM)
